Source: the supplement of paper PMC10949913

Experiments:
Assay in all cases: area under concentration-response curve (viability) (AUC (a.u.)); higher = less active
Conditions in all cases: 48 h
NCI-H295R = tested on: NCI-H295R
Procedure, shortened: (§1)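 Three adrenocortical carcinoma cell lines in 1,536-well plates received 23 nL of each library compound at 11 concentrations and were read with CellTiter-Glo after 48 h, with 15 minutes at room temperature before measuring luminescence. Vehicle and empty-well controls served for per-plate normalisation. AC50 and area under the curve were extracted from fitted concentration-response curves, discarding all curve classes other than inhibitory or non-responding.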

CU-ACC1 = tested on: CU-ACC1
Procedure, shortened: as §1

CU-ACC2 = tested on: CU-ACC2
Procedure, shortened: as §1

C=C1/C(=C/C=C2\CCCC3(C)[C@@H]([C@H](C)/C=C/C=C/C(O)(CC)CC)CC[C@@H]23)C[C@@H](O)C[C@@H]1O (stereo not given in full)
area under concentration-response curve (NCI-H295R): 522 | area under concentration-response curve (CU-ACC1): 480 | area under concentration-response curve (CU-ACC2): 576

CC(Oc1ccc(O)cc1)(P(=O)(O)O)P(=O)(O)O
area under concentration-response curve (NCI-H295R): 458 | area under concentration-response curve (CU-ACC1): 456 | area under concentration-response curve (CU-ACC2): 508

CCCn1c(=O)c2[nH]c(-c3cnn(Cc4cccc(C(F)(F)F)c4)c3)nc2n(CC)c1=O
area under concentration-response curve (NCI-H295R): 584 | area under concentration-response curve (CU-ACC1): 509 | area under concentration-response curve (CU-ACC2): 633

Oc1cc2c(cc1O)C1c3ccc(O)c(O)c3OCC1(O)C2 (stereo not given)
area under concentration-response curve (NCI-H295R): 527 | area under concentration-response curve (CU-ACC1): 546 | area under concentration-response curve (CU-ACC2): 542

C[C@]12CC(=O)[C@H]3[C@@H](CC\C4=C\C(=O)\C=C/[C@]34C)[C@@H]1CC[C@]2(O)C(=O)CO
area under concentration-response curve (NCI-H295R): 580 | area under concentration-response curve (CU-ACC1): 547 | area under concentration-response curve (CU-ACC2): 652

OC(=O)C(CC/1=C/C(=O)NC2=CC=CC=C12)NC(=O)C3=CC=C(Cl)C=C3 (stereo not given)
area under concentration-response curve (NCI-H295R): 483 | area under concentration-response curve (CU-ACC1): 521 | area under concentration-response curve (CU-ACC2): 610

OC1=CC=C(C=C1)\C2=C(O)\C(=O)C3=C(O2)C=C(O)C=C3O
area under concentration-response curve (NCI-H295R): 484 | area under concentration-response curve (CU-ACC1): 481 | area under concentration-response curve (CU-ACC2): 451

CC(C)(C(=O)NCC(F)(F)C(F)(F)F)C(=O)N[C@@H]1C(=O)Nc2ccccc2-c2ccccc21
area under concentration-response curve (NCI-H295R): 459 | area under concentration-response curve (CU-ACC1): 413 | area under concentration-response curve (CU-ACC2): 500

CCCCCCCCCCCCCCCCCCOP(=O)([O-])OC1CC[N+](C)(C)CC1
area under concentration-response curve (NCI-H295R): 449 | area under concentration-response curve (CU-ACC1): 418 | area under concentration-response curve (CU-ACC2): 534

COc1ccc(C(=O)N2CCCC2=O)cc1
area under concentration-response curve (NCI-H295R): 573 | area under concentration-response curve (CU-ACC1): 533 | area under concentration-response curve (CU-ACC2): 655

C=C(c1ccc(C(=O)O)cc1)c1cc2c(cc1C)C(C)(C)CCC2(C)C
area under concentration-response curve (NCI-H295R): 511 | area under concentration-response curve (CU-ACC1): 509 | area under concentration-response curve (CU-ACC2): 500

CCn1c(=O)c2c(nc(/C=C/c3ccc(OC)c(OC)c3)n2C)n(CC)c1=O
area under concentration-response curve (NCI-H295R): 431 | area under concentration-response curve (CU-ACC1): 431 | area under concentration-response curve (CU-ACC2): 434

CN1[C@@H]2CC(O)C[C@H]1[C@@H]1O[C@@H]12 (stereo not given in full)
area under concentration-response curve (NCI-H295R): 496 | area under concentration-response curve (CU-ACC1): 460 | area under concentration-response curve (CU-ACC2): 560

C/C=C/C(=O)N(CC)c1ccccc1C
area under concentration-response curve (NCI-H295R): 441 | area under concentration-response curve (CU-ACC1): 417 | area under concentration-response curve (CU-ACC2): 468

COCC(=O)NC/C=C/c1ccc2ncnc(Nc3ccc(Oc4ccc(C)nc4)c(C)c3)c2c1
area under concentration-response curve (NCI-H295R): 552 | area under concentration-response curve (CU-ACC1): 522 | area under concentration-response curve (CU-ACC2): 613

Cc1ccc([S+](=O)([O-])NC(=O)NN2CC3CCCC3C2)cc1 (stereo not given)
area under concentration-response curve (NCI-H295R): 579 | area under concentration-response curve (CU-ACC1): 537 | area under concentration-response curve (CU-ACC2): 629

Cc1ccc(NC(=O)c2cccc(N(C)C)c2)cc1NC(=O)c1ccc(O)cc1
area under concentration-response curve (NCI-H295R): 511 | area under concentration-response curve (CU-ACC1): 496 | area under concentration-response curve (CU-ACC2): 556

O=C1NC(=O)/C(=C/c2ccc3nccnc3c2)S1
area under concentration-response curve (NCI-H295R): 496 | area under concentration-response curve (CU-ACC1): 452 | area under concentration-response curve (CU-ACC2): 443

C\C1=N\N(C(=O)C1)C2=CC=CC=C2
area under concentration-response curve (NCI-H295R): 478 | area under concentration-response curve (CU-ACC1): 492 | area under concentration-response curve (CU-ACC2): 585

COC1=C(F)C=C\2C(=C1)\N=C/3NNC(=C3\N=C2C4=CC=CC=C4Cl)/C
area under concentration-response curve (NCI-H295R): 552 | area under concentration-response curve (CU-ACC1): 538 | area under concentration-response curve (CU-ACC2): 528
